The target in the assay is T1, JAK3 (Homo sapiens, UniProt P52333).
T1 construct: The Ramos B-cell line was acquired from ATCC (ATCC Catalog No. CRL-1596); host or cells: Ramos B-cell line (human)
T1 sequence (P52333 1-1124): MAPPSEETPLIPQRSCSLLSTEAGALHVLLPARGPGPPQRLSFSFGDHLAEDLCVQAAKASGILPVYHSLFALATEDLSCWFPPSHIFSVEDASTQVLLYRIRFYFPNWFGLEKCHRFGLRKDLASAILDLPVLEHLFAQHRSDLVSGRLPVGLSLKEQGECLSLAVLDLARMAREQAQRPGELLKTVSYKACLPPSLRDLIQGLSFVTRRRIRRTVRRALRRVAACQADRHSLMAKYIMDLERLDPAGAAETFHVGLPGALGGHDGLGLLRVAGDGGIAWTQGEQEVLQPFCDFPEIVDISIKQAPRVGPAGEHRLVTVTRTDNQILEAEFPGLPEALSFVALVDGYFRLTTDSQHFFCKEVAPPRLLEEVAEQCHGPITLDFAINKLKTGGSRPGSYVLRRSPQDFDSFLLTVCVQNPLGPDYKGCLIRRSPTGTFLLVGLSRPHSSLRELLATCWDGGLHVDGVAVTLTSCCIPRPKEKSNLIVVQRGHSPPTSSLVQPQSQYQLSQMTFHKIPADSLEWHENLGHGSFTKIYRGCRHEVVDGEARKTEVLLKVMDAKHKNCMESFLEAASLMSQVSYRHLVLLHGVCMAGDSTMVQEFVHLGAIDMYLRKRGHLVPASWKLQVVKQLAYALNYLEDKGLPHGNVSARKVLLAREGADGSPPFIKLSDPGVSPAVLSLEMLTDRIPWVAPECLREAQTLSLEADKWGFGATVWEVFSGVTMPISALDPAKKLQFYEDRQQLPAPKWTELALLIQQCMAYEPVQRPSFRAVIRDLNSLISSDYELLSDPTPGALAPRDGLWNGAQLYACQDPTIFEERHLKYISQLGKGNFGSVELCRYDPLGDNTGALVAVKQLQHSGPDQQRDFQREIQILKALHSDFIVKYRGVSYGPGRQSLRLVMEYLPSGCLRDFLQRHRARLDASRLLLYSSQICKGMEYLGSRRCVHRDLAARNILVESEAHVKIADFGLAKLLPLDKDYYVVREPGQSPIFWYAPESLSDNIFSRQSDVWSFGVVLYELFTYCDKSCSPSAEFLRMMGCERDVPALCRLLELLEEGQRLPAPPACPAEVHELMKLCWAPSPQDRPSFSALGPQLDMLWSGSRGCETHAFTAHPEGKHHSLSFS
The assay can be described thus: Assay for CD23 expression on Ramos B-cells stimulated by IL-4 (Table IV: ability to inhibit JAK3 activity). In kind it is cell-based. The conditions noted are these: tested under conditions described in Example 3 (so in the source). The essentials: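 Human Ramos B cells in RPMI with 5% serum, pre-incubated 1 h at 37 °C with compound or DMSO, then stimulated with IL-4 (final 50 units/mL) for 20–24 h. Surface CD23 upregulation measured by FACS staining as readout of JAK1/JAK3–Stat-6 signalling.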

In general, IC50 refers to the concentration that gives 50% inhibition. A high value points to lower potency.

Structures are written as SMILES. Structures can show the parent of a compound that is named as a salt.

`[2H]C([2H])([2H])Oc1cc(C)cc(Nc2ncc(F)c(Nc3ccc4oc(=O)[nH]c4c3)n2)c1` [Compound I-175, 5-(5-fluoro-2-(3-d3-methoxy-5-methylphenylamino)pyrimidin-4-ylamino)benzo[d]oxazol-2(3H)-one trifluoroacetate salt] came in with a concentration for half-maximal inhibition (IC50) of less than 500 nM.
For `CCc1ccc(Nc2ncc(C)c(Nc3ccc4oc(=O)[nH]c4c3)n2)c(F)c1OC` [Compound I-68, 5-[2-(4-Ethyl-2-fluoro-3-methoxy-phenylamino)-5-methyl-pyrimidin-4-ylamino]-3H-benzooxazol-2-one trifluoroacetate salt] the value was less than 500 nM; for `Cc1cc(Nc2ncc(C)c(Nc3ccc4oc(=O)[nH]c4c3)n2)cc(C)n1` [II-19, N2-(2,6-dimethylpyridin-4-yl)-5-methyl-N4-(2-oxo-2,3-dihydro-1,3-benzoxazol-5-yl)-2,4-pyrimidinediamine], less than 500 nM; for `COC(=O)c1cnc(Nc2cc(OC)cc(C(F)(F)F)c2)nc1Nc1ccc2oc(=O)[nH]c2c1` [Compound I-55, 2-(3-Methoxy-5-trifluoromethyl-phenylamino)-4-(2-oxo-2,3-dihydro-benzooxazol-5-ylamino)-pyrimidine-5-carboxylic acid methyl ester trifluoroacetate salt], more than 10000 nM.
Next, `COc1cc(Nc2ncc(C)c(Nc3ccc4oc(=O)n(C)c4c3)n2)cc(C)c1F` [Compound I-127, 5-(2-(4-fluoro-3-methoxy-5-methylphenylamino)-5-methylpyrimidin-4-ylamino)-3-methylbenzo[d]oxazol-2(3H)-one trifluoroacetate salt]: less than 500 nM; `Cc1cnc(Nc2ccc(Br)cc2F)nc1Nc1ccc2oc(=O)[nH]c2c1` [Compound I-28, 5-[2-(4-Bromo-2-fluoro-phenylamino)-5-methyl-pyrimidin-4-ylamino]-3H-benzooxazol-2-one]: less than 500 nM; `Cc1cnc(Nc2cc(C)c(C)c(C)c2)nc1Nc1ccc2oc(=O)n(C)c2c1` [Compound I-126, 5-(2-(3,4,5-trimethylphenylamino)-5-methylpyrimidin-4-ylamino)-3-methylbenzo[d]oxazol-2(3H)-one trifluoroacetate salt]: less than 500 nM.
For `COc1cc(Nc2ncc(F)c(Nc3ccc4oc(=O)[nH]c4c3)n2)cc(C)c1OC` [Compound I-182, 5-(2-(3,4-dimethoxy-5-methylphenylamino)-5-fluoropyrimidin-4-ylamino)benzo[d]oxazol-2(3H)-one trifluoroacetate salt] the value was less than 500 nM.
For the molecule `Cc1cnc(Nc2ccc(N(C)C)cc2)nc1Nc1ccc2oc(=O)[nH]c2c1` [Compound I-25, 5-[2-(4-Dimethylamino-phenylamino)-5-methyl-pyrimidin-4-ylamino]-3H-benzooxazol-2-one], the IC50 is less than 500 nM.
For `COC(=O)c1cnc(Nc2cc(C)c(F)c(C)c2)nc1Nc1ccc2oc(=O)[nH]c2c1` [Compound I-74, methyl 2-(4-fluoro-3,5-dimethylphenylamino)-4-(2-oxo-2,3-dihydrobenzo[d]oxazol-5-ylamino)pyrimidine-5-carboxylate trifluoroacetate salt] the value was 5000 to 10000 nM; for `COc1cc(Nc2ncc([N+](=O)[O-])c(Nc3ccc4oc(=O)[nH]c4c3)n2)cc(C(F)(F)F)c1` [Compound I-47, 5-(2-(3-methoxy-5-(trifluoromethyl)phenylamino)-5-nitropyrimidin-4-ylamino)benzo[d]oxazol-2(3H)-one trifluoroacetate salt], more than 10000 nM.
In turn, `COc1cc(Nc2ncc(F)c(Nc3ccc4oc(=O)[nH]c4c3)n2)cc(F)c1C` [Compound I-121, 5-(5-fluoro-2-(3-fluoro-5-methoxy-4-methylphenylamino)pyrimidin-4-ylamino)benzo[d]oxazol-2(3H)-one trifluoroacetate salt] had an IC50 of less than 500 nM.
For `COc1cc(Nc2ncc(C)c(Nc3ccc4oc(=O)[nH]c4c3)n2)ccn1` [II-17, N2-(2-methoxypyridin-4-yl)-5-methyl-N4-(2-oxo-2,3-dihydro-1,3-benzoxazol-5-yl)-2,4-pyrimidinediamine] the value was less than 500 nM.

For the origin of these results see patent publication US11174251B2, “Compositions and methods for inhibition of the JAK pathway” (Rigel Pharmaceuticals, Inc., priority 2010, dated 2021).
